The record followed here is patent publication US10894777B2, “TG2 inhibitor piperazine compounds and uses thereof” (UNIVERSITY OF OTTAWA, priority 2016, dated 2021).

Each structure is given as a SMILES string.

For assay [1], the target named is T1, purified human TG2 (Homo sapiens, UniProt P21980).
T1 sequence (P21980 1-687): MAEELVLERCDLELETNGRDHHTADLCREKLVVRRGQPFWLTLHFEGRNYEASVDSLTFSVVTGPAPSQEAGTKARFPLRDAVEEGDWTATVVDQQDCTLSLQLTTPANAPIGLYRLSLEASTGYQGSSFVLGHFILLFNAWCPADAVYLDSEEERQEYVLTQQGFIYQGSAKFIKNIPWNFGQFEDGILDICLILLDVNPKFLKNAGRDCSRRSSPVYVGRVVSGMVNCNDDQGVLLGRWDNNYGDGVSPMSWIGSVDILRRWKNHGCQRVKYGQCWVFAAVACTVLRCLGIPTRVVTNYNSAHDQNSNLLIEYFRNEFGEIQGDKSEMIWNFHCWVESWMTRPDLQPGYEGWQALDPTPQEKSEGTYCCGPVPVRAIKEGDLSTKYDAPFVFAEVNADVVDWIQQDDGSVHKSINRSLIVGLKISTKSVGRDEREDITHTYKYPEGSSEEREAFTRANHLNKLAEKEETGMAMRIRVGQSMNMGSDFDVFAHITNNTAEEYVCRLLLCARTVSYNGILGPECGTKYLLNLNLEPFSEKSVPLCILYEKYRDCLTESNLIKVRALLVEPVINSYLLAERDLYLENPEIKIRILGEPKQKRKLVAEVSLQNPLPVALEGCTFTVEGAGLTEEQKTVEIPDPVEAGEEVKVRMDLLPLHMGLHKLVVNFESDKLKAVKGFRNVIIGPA
Put plainly: Native PAGE of TG2 conformation. Particulars: NC9 120 μM, VA4 40 μM, VA5 40 μM with calcium, 90 min. The class given is biochemical. The protocol: Following this incubation, samples were run on polyacrylamide gel under non-denaturing conditions and in the presence of […] and magnesium. The gel was Coomassie stained and a picture of the gel is shown.
Native PAGE. Native gel electrophoresis experiments were performed using a method similar to those described previously (Begg, G. E. et al., Proc. Natl. Acad. Sci. U.S.A. 103: 19683-19688, 2006; Pinkas, D. M. et al., PLoS Biol. 5: e327, 2007). Briefly, TG2 or inhibited TG2 (2.5 μM) was incubated for 1.5 h at room temperature in pre-incubation buffer (50 mM Tris, 5 mM DTT, 0.5 mM EDTA) at pH 7.0 with or without 100 μM GTP/1.0 mM MgCl2 or 5.0 mM CaCl2. Laemmli native loading buffer was added (1:1) and 1.5 μg of TG2 was loaded onto a 4-20% Tris-HCl ReadyGel (Bio-Rad) using Tris-glycine as the running buffer with 100 μM GTP/1.0 mM MgCl2. For 90 min, 120 V was applied at 4° C. The gel was stained with 0.5% Coomassie brilliant blue R-250 in 40% methanol/10% acetic acid and destained in 10% methanol/10% acetic acid.

The test system of assay [2] is HaCaT cells. The experiment in a line: Spheroid formation assay, HaCaT cells. The assay is classed as cell-based, human. As to conditions: 20 μM, 48 h. As for the experimental part:
Spheroid formation assay. Spheroid formation assays were as reported previously (Adhikary, G. et al., PLoS One 8:e84324, 2013), except that the spheroids were grown in 6-well ultralow attachment Costar cluster dishes (Corning).

For assay [3], the system named is TG2 fusion protein mCer-TG2-YFP. The experiment in a line: Fluorescence lifetime imaging (FLIM) of TG2 conformation, HaCaT cells. The class given is cell-based, human. As to conditions: 5 μM. The protocol:
HaCaT cells were electroporated with mCer-TG2 or […] and then treated with 0 or 5 μM of the indicated inhibitor and fluorescent lifetime was monitored. […] HaCaT cells were preloaded with fluorescein cadaverine, treated with the indicated inhibitor and then challenged with calcium ionophore, washed and assayed for FC incorporation. […] The beads were then washed, boiled in Laemmli buffer and electrophoresed for immunoblot detection of TG2. Cell equivalent quantities of total and bound samples were electrophoresed to facilitate comparison of GTP bound versus total. […] Experiments were performed as described in FIGS. 31 (F) and (G).
Fluorescence lifetime imaging. Fluorescence lifetime images were acquired using FLIM system (Alba 5 from ISS). […] Emission was observed through bandpass filter 480/35 nm (Chroma Technology) and detected by a photomultiplier H7422-40 (Hamamatsu). FLIM data were acquired using time-domain modality (SPC-830 TCSPC module from Becker and Hickl GmbH). […] To account for intensity heterogeneity within single intensity images, two to five consecutive scans were acquired and summed to build FLIM intensity image for lifetime analysis. […] FLIM data were analyzed using VistaVision Suite software (Vista v.213 from ISS). Lifetime images were generated by fitting data using single exponential intensity decay model. Intensity threshold for lifetime analysis was set of at least 3-fold above the intensity of dim cells and fitting procedure was performed for binned pixels at level of 3 (7×7 pixels). Lifetime distribution within image is represented with histogram showing pixel frequency of specific lifetime. The average lifetime values with standard deviations were calculated based on all processed pixels in lifetime image. FRET values were calculated according to the formula ET=1−(τDA/τD), where τD is the lifetime of donor (mCer-TG2) and τDA is the lifetime of donor-acceptor pair (mCer-TG2—YFP).

Assay [4] has as its system U87 cells. Put plainly: Agarose colony formation assay, U87 cells. The assay is classed as cell-based, human. As to conditions: 10 μM, 2 weeks. The protocol: Agarose colony formation assay. Agarose colony formation assay was conducted as described (Horman, S. R. et al., J. Biomol. Screen 18(10):1298-308, 2013; Zhang, K. et al., Tumour Biol. 35(3):2537-48, 2014) using 6-well plates and 5,000 cells in each well. 10 μM NC9 or DMSO was added to every layer at the start of the experiments. 2 mL liquid MEM containing 10 μM NC9 or DMSO was used to cover the agarose and it was changed 3 times a week. Colony growth was monitored every day and at the end of 10-15 days, the colonies were fixed with 4% paraformaldehyde, stained with 0.005% crystal violet, washed with PBS twice and 40 random pictures were taken from each treatment group. A person blinded for the treatments measured the area of the colonies using ImageJ program and the volumes were calculated from the area data under the assumption that the colonies are perfect spheres. The volumes were used to compare the effect of NC9 on colony growth.

The test system of assay [5] is SCC-13 cells. Put plainly: Migration (scratch wound closure) assay, SCC-13 cells. The class given is cell-based, human. As to conditions: for cell migration (scratch wound closure): 0-12 h. The protocol:
Migration assay. SCC13-Control-shRNA or SCC13-TG2-shRNA2 cells (2×10^6) were plated in 10 cm dishes and grown as monolayer cultures in spheroid medium until confluent. A 10 μl pipette tip was used to prepare areas void of cells and the dishes were washed to remove the dislodged cells. Images were collected, at 0-18 h after the scratch using the 10× objective, and the width of the opening was measured as a function of time as an index of cell migration potential.
Migration assay. Cells (2 million) were plated in 10 cm dishes and grown as monolayer cultures in spheroid medium until confluent. A 10 μl pipette tip was used to prepare areas void of cells and the dishes were washed to remove the dislodged cells. The ability of the cells to close the scratch wounds was monitored at 0-18 h after the scratch using the 10× objective, and the width of the opening was measured as a function of time as an index of cell migration (Adhikary, G. et al., PLoS One 8:e84324, 2013).

For the compound `C=CC(=O)NCCCC[C@H](NC(=O)OCc1ccccc1)C(=O)NCCOCCOCCNS(=O)(=O)c1cccc2c(N(C)C)cccc12` [NC9], the “conformation of inhibitor-bound TG2” value in assay [1] is on record as “open conformation”. Moreover, the “ECS cell spheroid formation” value in assay [2] is on record as “suppressed”. The “fluorescence lifetime / TG2 structure” value in assay [3] was “increased fluorescence lifetime”. For the same compound, the “colony growth, U87” value in assay [4] is recorded as “significantly reduced the growth”. The “cell migration (scratch wound closure)” value in assay [5] is on record as “inhibited cell migration”. Further, the cell migration entry in assay [5] (20 μM, 0-18 h) was “reduced”.

As to `C=CC(=O)NCCCC[C@H](NC(=O)OCc1ccccc1)C(=O)N1CCN(S(=O)(=O)c2cccc3c(N(C)C)cccc23)CC1` [VA4, (S)-benzyl(6-acrylamido-1-(4-((5-(dimethylamino)naphthalen-1-yl)sulfonyl)piperazin-1-yl)-1-oxohexan-2-yl)carbamate], the “conformation of inhibitor-bound TG2” value in assay [1] was “open conformation”. Also, in assay [2], the “ECS cell spheroid formation” value is given as “suppressed”. In addition, in assay [3], the “fluorescence lifetime / TG2 structure” value is recorded as “increased fluorescence lifetime”. In addition, in assay [4], the “colony growth, U87” value is listed as “inhibited colony growth”. Further, the “cell migration (scratch wound closure)” value in assay [5] is recorded as “inhibited cell migration”.

In the case of `C=CC(=O)NCCCC[C@H](NC(=O)OCc1ccccc1)C(=O)N1CCN(C(=O)c2cc3ccc(O)cc3oc2=O)CC1` [VA5, (S)-Benzyl(6-acrylamido-1-(4-(7-hydroxy-2-oxo-2H-chromene-3-carbonyl)piperazin-1-yl)-1-oxohexan-2-yl)carbamate], the “conformation of inhibitor-bound TG2” value in assay [1] is given as “open conformation”. The “ECS cell spheroid formation” value in assay [2] is recorded as “suppressed”. Moreover, the “fluorescence lifetime / TG2 structure” value in assay [3] was “increased fluorescence lifetime”. Besides, the “colony growth, U87” value in assay [4] is recorded as “promoted it”. In addition, in assay [5], the “cell migration (scratch wound closure)” value is listed as “inhibited cell migration”.
